Source: patent US20160154122A1, “Scintillating Organic Materials and Methods For Detecting Neutron and Gamma Radiation” (Nanoptics, Incorporated, priority 2011, published 2016)
Read-outs that look alike come from different tables or passages of the source.

Key:
[1] = Solubility of base dye in polystyrene; type: physicochemical; details: base dye measured to be soluble in polystyrene
[2] = result in words; cited from earlier work
[3] = Text: Salts of lithium can have a variety of properties, including one or more of the following: many salts of lithium are very chemically reactive; others are extremely insoluble; some are not produced in high volume and are, therefore, expensive to use at high concentration; and others have elements with moderate to high atomic numbers, causing quenching of the scintillation light.
[4] = result in words; cited from earlier work; remark: listed apart in the source

Structure (SMILES): Cc1cccc2ccccc12 [1-Methyl Naphthalene]
- Solubility [1]: >1000 mM

Structure (SMILES): c1ccc(-c2cnc(-c3ccccc3)o2)cc1 [2,5 Diphenyloxazole]
- Solubility [1]: >1500 mM

Structure (SMILES): Cc1ccc2ccccc2c1 [2-Methyl Naphthalene]
- Solubility [1]: >1000 mM

Structure (SMILES): CN1CCN(C)C1=O [DMI, 1,3 Dimethyl 2-Imidazolidone]
- Miscibility with water [2]: miscible

Structure (SMILES): O=C([O-])c1ccccc1.[Li+] [Lithium Benzoate]
- Percentage wt of Lithium in Solution H2O [3]: 2.40 % wt/wt

Structure (SMILES): [Cl-].[Li+] [Lithium Chloride]
- Solubility of Compound (wt %) DIM [3]: >15.0 wt %
- Solubility of Compound (wt %) DMSO [3]: 10.20 wt %
- Solubility of Compound (wt %) H2O [3]: 83.50 wt %

Structure (SMILES): [Li+].[O-][Cl+3]([O-])([O-])[O-] [Lithium Perchlorate]
- Percentage wt of Lithium in Solution DMSO ([3]; achievable lithium ions in DMSO): 2.05 % wt/wt
- Percentage wt of Lithium in Solution H2O ([3]; achievable lithium ions in H2O): 3.70 % wt/wt
- Solubility of Compound (wt %) DMSO ([3]; maximum solubility in DMSO): 31.50 wt %
- Solubility of Compound (wt %) H2O ([3]; maximum solubility in H2O): 56.10 wt %

Structure (SMILES): C=CN1CCCC1=O [N-Vinyl-2-Pyrrolidone]
- Hygroscopic [4]: Yes

Structure (SMILES): CN1CCCC1=O [NMP, Methylpyrrolidone]
- Miscibility with water [2]: miscible

Structure (SMILES): c1ccc2ccccc2c1 [Naphthalene]
- Solubility [1]: >1000 mM

Structure (SMILES): Cc1ccc(C)cc1 [p-Xylene]
- Solubility [1]: >1000 mM

Structure (SMILES): Cc1ccc(C)c(C)c1 [pseudocumene]
- Solubility [1]: >1000 mM
